Measurements: patent US20140057997A1, “COSMETIC COMPOSITION COMPRISING 4-(3-ETHOXY-4-HYDROXYPHENYL)-2-BUTANONE AND A LIPOPHILIC SOLVENT” (L'OREAL, priority 2011, published 2014)

Test: Solubility stated in the introduction
Format: physicochemical

Measured: Solubility

CCOc1cc(CCC(C)=O)ccc1O [4-(3-ethoxy-4-hydroxyphenyl)-2-butanone, 4-(3-Ethoxy-4-hydroxyphenyl)-2-butanone]
very sparingly soluble: in 2-octyldodecanol | in glycerol | in water
